IC50 data for 15 molecules are collected here from patent US20060079453A1, “Hla binding peptides and their uses” (priority 2002, published 2006).

Read-outs that look alike come from different tables or passages of the source. No end group written: not given here.

What all share (assay): biochemical
Common to all, as to assay type: binding

For assay [1], the target named is HLA-DR DRB1*0405 (DR4) (Homo sapiens, UniProt P01903+P01911, A100R/A169T/D86S/F76Y/I96L/K127E/L162R/M171V/N62H/P40V/Q125Y/R42H/S133A/S149N/S66Y/V115G/V209L/W38E).
For assay [2], the target named is HLA-DR DRB1*0101 (DR1) (Homo sapiens, UniProt P01903+P01911, A100R/D57E/F55L/F60I/F76Y/I96L/L162R/M171V/P40L/Q125E/R42F/V115G/Y59C).
The target of assay [3] is HLA-DR DRB1*1302 (DR13) (Homo sapiens, UniProt P01903+P01911, A100E/A169T/K41T/L162R/M171V/P40S/Q125H/Q178H/Q39Y/Q99D/R42S/S66N/T262R/V115G/W38E/Y61H).
Chain of HLA-DR DRB1*1302 (DR13) (P01903 26-254 limits assumed, other chains not shown): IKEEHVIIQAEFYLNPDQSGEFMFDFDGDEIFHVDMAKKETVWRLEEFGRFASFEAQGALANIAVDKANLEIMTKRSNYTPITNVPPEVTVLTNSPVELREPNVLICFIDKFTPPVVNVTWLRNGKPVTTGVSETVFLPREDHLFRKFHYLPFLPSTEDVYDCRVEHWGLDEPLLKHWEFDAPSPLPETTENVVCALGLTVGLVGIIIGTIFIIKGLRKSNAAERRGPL
Assay [4] deals with HLA-DR DRB1*0701 (DR7) (Homo sapiens, UniProt P01903+P01911, A100R/A102G/A103Q/D57E/D86V/E43K/F76Y/K127E/L162R/M171V/P40G/Q125H/Q99D/R33Q/R42Y/R54Q/S133A/S66F/T210M/V115G/Y107V/Y59L/Y89S).
Assay [5] concerns the target HLA-DR DRB4*0101 (DR53) (Homo sapiens, UniProt P01903+P13762, G164S).
Assay [6] deals with HLA-DR DRB1*1101 (DR11) (Homo sapiens, UniProt P01903+P01911, A100R/A169T/A87E/I96F/K41T/L162R/M171V/P40S/Q125H/Q178H/Q39Y/Q99D/R42S/S66Y/T262R/V115G/W38E).
Chain of HLA-DR DRB1*1101 (DR11) (P01903 26-254 limits assumed, other chains not shown): as above
Assay [7] concerns the target HLA-DR DRB1*0802 (DR8) (Homo sapiens, UniProt P01903+P01911, A100R/A103L/A169T/F76Y/H45Y/I96F/K41T/L162R/M171V/P40S/Q125H/Q178H/Q39Y/Q99D/R218S/R42G/S66Y/V115G/W38E).
The target in assay [8] is HLA-DR DRB1*0901 (DR9) (Homo sapiens, UniProt P01903+P01911, A100R/A103E/D57H/D86V/F55Y/F60I/F76Y/I96F/K127E/L162R/M171V/P40D/Q125H/Q99R/R33Q/R42F/S133A/S66N/T210M/V115G/W38K/Y107V/Y59G/Y89S).
In assay [9] the target is HLA-DR DRB1*1501 (DR15) (Homo sapiens, UniProt P01903+P01911).
Assay [10] concerns the target HLA-DR DRB1*0401 (DR4) (Homo sapiens, UniProt P01903+P01911, A100K/A169T/F76Y/I96L/K127E/L162R/M171V/N62H/P40V/Q125Y/R42H/S133A/S149N/S66Y/V115G/V209L/W38E).
Assay [11] has as its target HLA-DR DRB5*0101 (DR51) (Homo sapiens, UniProt P01903+Q30154). The note with it: DRB5 *0101.
The target in assay [12] is HLA-DR DRB1*0301 (DR3) (Homo sapiens, UniProt P01903+P01911, A100K/A102G/A103R/A169T/F55Y/I96L/K41T/L162R/M171V/P40S/Q125H/Q178H/Q39Y/R42S/S66N/T106N/T262R/W38E/Y61H).
Chain of HLA-DR DRB1*0301 (DR3) (P01903 26-254 limits assumed, other chains not shown): as above

Regarding ALSTLVLNRLKVGLQ, the IC50 in assay [1] (DRB1 *0405) stood at 2170 nM; in assay [2] (DRB1 *0101), 49 nM; in assay [3] (DRBI *1302), 4.6 nM; in [4] (DRB1 *0701) it was 647 nM; in assay [5] (DRB4 *0101), 17 nM; in assay [6] (DRB1 *1101), 9.1 nM. The IC50 in assay [7] worked out at 4 nM; in assay [8] (DRB1 *0901), 2170 nM; in assay [9] (DRBI *1501) it was 191 nM; in [10] (DRB1 *0401), 517 nM; in assay [11] it was 3.9 nM.
As to TLERPKTLSPQKNGV, the IC50 was greater than 28600 nM in assay [1] (read-out: DRB1 *0405); 26000 nM in [4] (read-out: DRB1 *0701); greater than 75400 nM in assay [7] (read-out: DRB1 *0802); greater than 300000 nM in assay [8] (read-out: DRB1 *0901); 134000 nM in assay [12] (read-out: DRB1 *0301); greater than 22500 nM in assay [10] (read-out: DRB1 *0401).
For VRVEILRYFYVINRL, the IC50 in assay [1] (read-out: DRB1 *0405) turned out to be 18 nM; in assay [2] (read-out: DRB1 *0101), 1.8 nM; in [4] (read-out: DRB1 *0701) it was 14 nM; in assay [7] (read-out: DRB1 *0802), 3580 nM; in assay [8] (read-out: DRB1 *0901), 485 nM; in [10] (read-out: DRB1 *0401), 140 nM.
Take VASLLTTAEVVVTE: the IC50 is 6520 nM in assay [1] (read-out: DRB1 *0405); 369 nM in assay [4] (read-out: DRB1 *0701); greater than 118000 nM in [7] (read-out: DRB1 *0802); 1960 nM in assay [8] (read-out: DRB1 *0901); 136000 nM in assay [12] (read-out: DRB1 *0301); 7430 nM in assay [10] (read-out: DRB1 *0401).
As to `CC[C@H](C)[C@H](NC(=O)[C@H](CCCCN)NC(=O)[C@H](CC(N)=O)NC(=O)[C@@H](NC(=O)[C@@H](NC(=O)[C@H](CC(C)C)NC(=O)[C@@H](NC(=O)[C@H](CO)NC(=O)[C@H](CC(C)C)NC(=O)[C@H](C)N)[C@@H](C)O)C(C)C)C(C)C)C(=O)N[C@@H](CCCNC(=N)N)C(=O)NCC(=O)N[C@H](C(=O)N[C@@H](Cc1ccccc1)C(=O)N[C@@H](CCCCN)C(=O)O)[C@@H](C)O`, the IC50 in [1] amounted to 3630 nM; in [2] it was 75 nM; in assay [4] it was 396 nM; in assay [7] it was 20 nM; in assay [8], 18000 nM; in assay [12] it was 274 nM. Also, the IC50 in assay [10] was determined as 648 nM.
As for AYVLLSEKKISSIQS, the IC50 in assay [1] (DRB1 *0405) came to 9470 nM; in assay [2] (DRB1 *0101), 78 nM; in [3] (DRBI *1302), 816 nM; in assay [4] (DRB1 *0701), 3850 nM; in [5] (DRB4 *0101), 902 nM; in assay [6] (DRB1 *1101), 51 nM. For the same molecule, the IC50 amounted to 27 nM in assay [7]; 3340 nM in [8] (DRB1 *0901); 489 nM in assay [9] (DRBI *1501); 943 nM in assay [10] (DRB1 *0401); 4520 nM in assay [11].
On to CCTSICSLYQLENY, for which the IC50 in [1] (read-out: DRB1 *0405) is 629 nM; in assay [4] (read-out: DRB1 *0701), 35600 nM; in assay [7] (read-out: DRB1 *0802), greater than 54400 nM; in [8] (read-out: DRB1 *0901), 29800 nM; in assay [12] (read-out: DRB1 *0301), 71200 nM; in [10] (read-out: DRB1 *0401), 8380 nM.
Consider `CC[C@H](C)[C@H](N)C(=O)N[C@@H](C)C(=O)NCC(=O)N[C@@H](CC(C)C)C(=O)N[C@@H](Cc1ccccc1)C(=O)N[C@@H](CC(C)C)C(=O)N[C@H](C(=O)N[C@H](C(=O)N[C@@H](CCC(=O)O)C(=O)N[C@@H](C)C(=O)N[C@H](C(=O)N[C@H](C(=O)N[C@@H](C)C(=O)N[C@@H](CC(=O)O)C(=O)N[C@@H](CCCCN)C(=O)O)C(C)C)C(C)C)[C@@H](C)O)[C@@H](C)O`, for which the IC50 was 67 nM in assay [1]; 6.8 nM in assay [2]; greater than 10300 nM in assay [3]; 230 nM in [4]; greater than 26400 nM in assay [5]; 867 nM in assay [6]. Also, the IC50 in assay [7] was 3890 nM; in [8], 409 nM; in [9], greater than 50800 nM; in assay [10] it was 13 nM.
With FLRIVQTRSVEGSTGF, the IC50 in assay [1] (DRB1 *0405) was determined as 99 nM; in assay [2] (DRB1 *0101), 6.4 nM; in assay [3] (DRBI *1302), 1.5 nM; in [4] (DRB1 *0701) it was 9.8 nM; in [7] it was 445 nM; in assay [8] (DRB1 *0901), 778 nM. The IC50 in assay [9] (DRBI *1501) is 9.8 nM; in [12], 3940 nM; in [10] (DRB1 *0401), 11 nM.
With DFSYLQDSDPDSFQD, the IC50 is greater than 127000 nM in assay [1] (DRB1 *0405); greater than 35000 nM in assay [3] (DRBI *1302); greater than 250000 nM in assay [4] (DRB1 *0701); greater than 61200 nM in [7]; greater than 107000 nM in assay [8] (DRB1 *0901); greater than 91000 nM in [9] (DRBI *1501). Besides, the IC50 in assay [10] (DRB1 *0401) is 264 nM; in assay [11], greater than 40000 nM.
On to YLVTGERGFFYTKYT, for which the IC50 was greater than 30100 nM in assay [1] (read-out: DRB1 *0405); 1150 nM in [2] (read-out: DRB1 *0101); 78 nM in assay [4] (read-out: DRB1 *0701); 4300 nM in assay [7] (read-out: DRB1 *0802); 195000 nM in assay [8] (read-out: DRB1 *0901); 4800 nM in assay [12] (read-out: DRB1 *0301). Moreover, the IC50 in assay [10] (read-out: DRB1 *0401) was greater than 20500 nM.
For the molecule `CSCC[C@H](NC(=O)[C@H](CCC(N)=O)NC(=O)[C@@H](NC(=O)[C@H](Cc1ccccc1)NC(=O)[C@H](C)NC(=O)[C@@H](NC(=O)CN)[C@@H](C)O)C(C)C)C(=O)N1CCC[C@H]1C(=O)N[C@@H](C)C(=O)N[C@@H](Cc1c[nH]cn1)C(=O)NCC(=O)N[C@@H](CC(C)C)C(=O)N[C@@H](Cc1ccccc1)C(=O)N1CCC[C@H]1C(=O)N[C@@H](Cc1c[nH]c2ccccc12)C(=O)O`, the IC50 in [1] (DRB1 *0405) turned out to be 18 nM; in assay [2] (DRB1 *0101), 1.6 nM; in assay [3] (DRBI *1302), 2820 nM; in [4] (DRB1 *0701) it was 90 nM; in assay [6] (DRB1 *1101) it was 17 nM; in assay [7] it was 99 nM. Besides, the IC50 came out at 1.2 nM in assay [9] (DRBI *1501), 37300 nM in [12], 8.1 nM in assay [10] (DRB1 *0401) and 43 nM in [11].
For `CC[C@H](C)[C@H](NC(=O)[C@H](CCCCN)NC(=O)[C@H](CC(N)=O)NC(=O)[C@@H](NC(=O)[C@@H](NC(=O)[C@H](CC(C)C)NC(=O)[C@@H](NC(=O)[C@H](CO)NC(=O)[C@H](CC(C)C)NC(=O)[C@H](C)NC(=O)[C@H](CCC(=O)O)NC(=O)CN)[C@@H](C)O)C(C)C)C(C)C)C(=O)N[C@@H](CCCNC(=N)N)C(=O)NCC(=O)N[C@H](C(=O)O)[C@@H](C)O`, the IC50 was determined as 30100 nM in assay [1]; 55 nM in assay [3]; 1510 nM in assay [5]; 977 nM in assay [6]; 383 nM in assay [7]; 40800 nM in assay [8]. The IC50 in assay [12] worked out at 29700 nM; in assay [11], 108 nM.
On to QLCFLKKGLGISYGR, for which the IC50 stood at 443 nM in assay [1]; 88 nM in [3]; 3630 nM in assay [4]; 9.5 nM in [6]; 40 nM in assay [7]; 200 nM in assay [8]. The figures for the IC50 in [12] and in assay [10] were 158000 nM and 4440 nM, respectively.
As for `CC[C@H](C)[C@H](NC(=O)CNC(=O)[C@H](CC(C)C)NC(=O)CNC(=O)[C@H](CCCCN)NC(=O)[C@@H](NC(=O)[C@@H](NC(=O)[C@H](Cc1ccccc1)NC(=O)[C@H](CS)NC(=O)[C@@H](NC(=O)[C@@H](N)CCC(N)=O)C(C)C)[C@@H](C)CC)[C@@H](C)O)C(=O)N[C@@H](CO)C(=O)N[C@@H](Cc1ccc(O)cc1)C(=O)NCC(=O)N[C@@H](CCCNC(=N)N)C(=O)O`, the IC50 in [1] (DRB1 *0405) was determined as 295 nM; in [3] (DRBI *1302) it was 92 nM; in assay [4] (DRB1 *0701), 91 nM; in [5] (DRB4 *0101), 876 nM; in [6] (DRB1 *1101) it was 31 nM; in assay [7], 41 nM. The IC50 in [9] (DRBI *1501) was determined as 3550 nM; in [12], 167000 nM; in assay [11], 3950 nM.
